Measured values: ChEMBL document CHEMBL5543058, “The application of PROTAC in HDAC” (Eur J Med Chem, 2023)
pIC50: −log10 of the molar value.

Legend:
Jurkat = experiment: Growth inhibition of human Jurkat cells; type: functional
Histone deacetylase 8 = biological target: T1, Histone deacetylase 8 (Homo sapiens, UniProt Q9BY41); experiment: Inhibition of HDAC8 (unknown origin) using acetyl-Gly-Ala-(N-acetyl-Lys)-amino-4-methylcoumarin as substrate measured after 30 mins by fluorescence assay
T1 sequence (Q9BY41 whole entry): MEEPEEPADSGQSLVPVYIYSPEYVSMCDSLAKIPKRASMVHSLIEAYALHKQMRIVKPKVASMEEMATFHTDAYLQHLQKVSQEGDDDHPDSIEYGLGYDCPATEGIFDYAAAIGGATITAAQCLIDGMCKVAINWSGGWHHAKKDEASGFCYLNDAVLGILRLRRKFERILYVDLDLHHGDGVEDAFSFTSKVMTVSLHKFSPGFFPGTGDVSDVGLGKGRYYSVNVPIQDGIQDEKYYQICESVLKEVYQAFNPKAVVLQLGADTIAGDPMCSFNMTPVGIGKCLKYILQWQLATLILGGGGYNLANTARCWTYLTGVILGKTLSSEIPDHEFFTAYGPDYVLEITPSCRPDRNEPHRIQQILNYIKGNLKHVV

[1] = biological target: T2, Histone deacetylase 8 (Homo sapiens) (UniProt Q9BY41); experiment: Induction of HDAC8 degradation in human A549 cells assessed as maximum degradation at 0.1 to 160 uM measured after 10 hrs by Western blot analysis relative to control; type: cell-based; conditions: dose 0.1-160 µM
T2 sequence (whole entry): T1 sequence (Q9BY41 whole entry)

A549 [2] = experiment: Growth inhibition of human A549 cells incubated for 72 hrs by MTT assay; type: functional
[3] = biological target: Protein cereblon/Histone deacetylase 8 (Homo sapiens, UniProt Q9BY41+Q96SW2); experiment: PROTAC activity at HDAC8/CRBN in human A549 cells assessed as degradation of HDAC8 by Western blot analysis; type: cell-based
A549 [4] = experiment: Antiproliferative activity against human A549 cells assessed as inhibition of cell growth measured after 48 hrs by SRB assay; type: functional
[5] = biological target: von Hippel-Lindau disease tumor suppressor/Histone deacetylase 2 (Homo sapiens, UniProt Q92769+P40337); experiment: Protac activity at VHL/LSD1/HDAC2/CoREST complex interaction in human HCT-116 cells assessed as induction of HDAC2 degradation by fluorescence based assay; type: cell-based
[6] = biological target: von Hippel-Lindau disease tumor suppressor/Histone deacetylase 1 (Homo sapiens, UniProt Q13547+P40337); experiment: Protac activity at VHL/LSD1/HDAC1/CoREST complex interaction in human HCT-116 cells assessed as HDAC1 degradation by fluorescence based assay; type: cell-based
[7] = biological target: von Hippel-Lindau disease tumor suppressor/Histone deacetylase 3 (Homo sapiens, UniProt O15379+P40337); experiment: Protac activity at VHL/LSD1/HDAC3/CoREST complex interaction in human HCT-116 cells assessed as induction of HDAC3 degradation by fluorescence based assay; type: cell-based
Sequence of von Hippel-Lindau disease tumor suppressor/Histone deacetylase 3 (O15379 whole entry): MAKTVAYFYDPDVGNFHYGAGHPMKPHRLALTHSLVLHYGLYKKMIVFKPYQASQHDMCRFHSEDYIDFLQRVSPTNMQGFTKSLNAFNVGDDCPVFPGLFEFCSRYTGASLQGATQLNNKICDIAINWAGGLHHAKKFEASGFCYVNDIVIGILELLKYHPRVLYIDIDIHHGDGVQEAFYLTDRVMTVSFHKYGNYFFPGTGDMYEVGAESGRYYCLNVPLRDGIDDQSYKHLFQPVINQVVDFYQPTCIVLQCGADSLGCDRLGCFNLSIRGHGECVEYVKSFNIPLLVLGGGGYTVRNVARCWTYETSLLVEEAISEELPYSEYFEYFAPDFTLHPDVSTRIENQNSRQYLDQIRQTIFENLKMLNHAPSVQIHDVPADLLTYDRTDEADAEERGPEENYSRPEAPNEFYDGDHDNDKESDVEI
Sequence of von Hippel-Lindau disease tumor suppressor/Histone deacetylase 3 (P40337 whole entry): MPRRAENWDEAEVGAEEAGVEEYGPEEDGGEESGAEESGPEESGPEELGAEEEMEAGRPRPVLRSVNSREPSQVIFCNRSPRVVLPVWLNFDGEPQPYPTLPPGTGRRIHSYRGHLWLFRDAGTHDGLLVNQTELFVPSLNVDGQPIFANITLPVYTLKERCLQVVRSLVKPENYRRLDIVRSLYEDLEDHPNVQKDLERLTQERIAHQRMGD

Sequence of von Hippel-Lindau disease tumor suppressor/Histone deacetylase 1 (Q13547 whole entry): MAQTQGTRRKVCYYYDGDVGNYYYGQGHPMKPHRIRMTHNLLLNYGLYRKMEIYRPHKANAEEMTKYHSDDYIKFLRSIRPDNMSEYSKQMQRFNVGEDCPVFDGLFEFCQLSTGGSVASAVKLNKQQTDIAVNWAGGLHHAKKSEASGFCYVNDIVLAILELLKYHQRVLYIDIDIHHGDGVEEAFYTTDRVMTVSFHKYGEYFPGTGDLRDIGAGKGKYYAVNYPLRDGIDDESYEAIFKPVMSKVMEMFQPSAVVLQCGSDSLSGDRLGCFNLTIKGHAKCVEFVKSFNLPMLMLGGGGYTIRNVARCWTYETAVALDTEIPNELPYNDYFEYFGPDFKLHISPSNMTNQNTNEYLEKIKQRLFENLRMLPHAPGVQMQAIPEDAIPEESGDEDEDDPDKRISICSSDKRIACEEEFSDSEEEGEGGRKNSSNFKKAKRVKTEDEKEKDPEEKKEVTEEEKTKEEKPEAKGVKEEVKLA
Sequence of von Hippel-Lindau disease tumor suppressor/Histone deacetylase 1 (P40337 whole entry): as the sequence (P40337 whole entry) above
Sequence of Protein cereblon/Histone deacetylase 8 (Q96SW2 whole entry, one chain of several): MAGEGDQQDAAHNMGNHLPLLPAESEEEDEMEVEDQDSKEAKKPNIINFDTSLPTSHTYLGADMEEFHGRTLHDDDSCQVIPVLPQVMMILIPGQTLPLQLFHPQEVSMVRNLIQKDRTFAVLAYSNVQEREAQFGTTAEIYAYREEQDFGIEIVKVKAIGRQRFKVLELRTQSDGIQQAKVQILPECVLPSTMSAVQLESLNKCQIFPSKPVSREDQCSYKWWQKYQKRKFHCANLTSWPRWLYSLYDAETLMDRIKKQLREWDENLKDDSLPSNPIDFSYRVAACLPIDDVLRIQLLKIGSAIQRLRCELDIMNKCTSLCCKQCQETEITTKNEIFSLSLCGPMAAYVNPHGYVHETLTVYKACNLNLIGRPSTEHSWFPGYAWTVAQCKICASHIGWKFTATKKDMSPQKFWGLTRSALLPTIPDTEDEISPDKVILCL
Sequence of von Hippel-Lindau disease tumor suppressor/Histone deacetylase 2 (Q92769 whole entry): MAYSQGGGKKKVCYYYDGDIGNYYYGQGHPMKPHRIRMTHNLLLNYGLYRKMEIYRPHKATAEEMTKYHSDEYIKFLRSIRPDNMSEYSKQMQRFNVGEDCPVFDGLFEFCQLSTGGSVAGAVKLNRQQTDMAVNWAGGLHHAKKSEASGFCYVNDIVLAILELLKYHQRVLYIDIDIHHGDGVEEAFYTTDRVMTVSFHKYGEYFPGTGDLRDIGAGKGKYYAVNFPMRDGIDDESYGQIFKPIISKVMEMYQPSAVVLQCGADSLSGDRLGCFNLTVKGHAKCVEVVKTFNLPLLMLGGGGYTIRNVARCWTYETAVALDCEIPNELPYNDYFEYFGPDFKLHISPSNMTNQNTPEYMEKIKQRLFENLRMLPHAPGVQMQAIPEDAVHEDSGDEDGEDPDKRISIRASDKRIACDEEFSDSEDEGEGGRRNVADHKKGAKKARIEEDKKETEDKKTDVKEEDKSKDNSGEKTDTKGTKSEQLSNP
Sequence of von Hippel-Lindau disease tumor suppressor/Histone deacetylase 2 (P40337 whole entry): as the sequence (P40337 whole entry) above

## O=C(NO)c1cccc(-n2cc(CSc3ccccc3)nn2)c1
Jurkat
  GI50: 7090 nM
Histone deacetylase 8
  pIC50: 7.28

## O=C1CCC(N2C(=O)c3cccc(NCc4cn(CCOCCOc5ccc(Cn6ccc7ccc(C(=O)NO)cc76)cc5)nn4)c3C2=O)C(=O)N1 (stereo unspecified)
[1]
  Emax: 95%
A549 [2]
  GI50: 9550 nM
[3]
  DC50: 580 nM

## O=C1CCC(N2C(=O)c3cccc(NCCCCCCCCCCCNC(=O)c4cccc(SCc5cn(-c6cccc(C(=O)NO)c6)nn5)c4)c3C2=O)C(=O)N1 (stereo unspecified)
Jurkat
  GI50: 780 nM
Histone deacetylase 8
  pIC50: 6.43

## COc1ccc(Cn2ccc3ccc(C(=O)NO)cc32)cc1
A549 [4]
  GI50: 15800 nM

## Cc1ncsc1-c1ccc(CNC(=O)[C@@H]2C[C@@H](O)CN2C(=O)[C@@H](NC(=O)CCCCCCCCCCC(=O)Nc2ccc(C(=O)Nc3ccccc3N)cc2)C(C)(C)C)cc1
[5]
  DC50: 1000 nM
[6]
  DC50: 1000 nM
[7]
  DC50: 1000 nM
